This note sets out measurements from US7084127B2, “C2,5′-disubstituted and N6, C2,5′-trisubstituted adenosine derivatives and their different uses” (Universiteit Leiden, priority 2001, dated 2006).

In data set [1] the target is T1, human adenosine A3 receptor (Homo sapiens, UniProt P0DMS8).
T1 construct: expressed in transfected cells; HEK 293 cells according to b145 and b219
T1 sequence (P0DMS8 1-318): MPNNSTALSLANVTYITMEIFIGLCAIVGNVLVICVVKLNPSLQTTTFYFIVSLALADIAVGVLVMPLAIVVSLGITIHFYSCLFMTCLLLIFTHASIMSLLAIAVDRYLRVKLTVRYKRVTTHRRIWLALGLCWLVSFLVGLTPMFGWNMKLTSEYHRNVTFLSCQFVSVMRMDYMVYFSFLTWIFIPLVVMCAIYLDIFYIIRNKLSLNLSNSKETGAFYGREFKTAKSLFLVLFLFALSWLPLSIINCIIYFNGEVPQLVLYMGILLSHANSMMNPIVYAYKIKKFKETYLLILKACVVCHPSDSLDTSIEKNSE
Briefly: cAMP assay A3 (inhibition of forskolin-induced cAMP production). Format: cell-based. The settings on record: read-out: Emax (%) A3.
Protocol: cAMP assay A3 CHO cells expressing the human adenosine A3 receptor were grown overnight as a monolayer in 24 wells tissue culture plates (400 μl/well; 2×10^5 cells/well). cAMP generation was performed in Dulbecco's Modified Eagles Medium (DMEM)/N-2-hydroxyethylpiperazin-N′-2-ethansulfonic acid (HEPES) buffer (0.60 g HEPES/50 ml DMEM pH 7.4). […] After incubation for 40 minutes at 37° C., 100 μl forskolin (final concentration 10 μM) was added. After 15 minutes at 37° C., the reaction was terminated by removing the medium and adding 200 μl 0.1 M HCl. Wells were stored at −20° C. until assay. The amounts of cAMP were determined after a protocol with cAMP binding protein^36 with the following minor modifications. As a buffer was used 150 mM K2HPO4/10 mM EDTA/0.2% Bovine Serum Albumine (BSA) at pH 7.5. Samples (20 μl+30 μl 0.1 M HCl) were incubated for at least 2.5 hours at 0° C. before filtration over Whatman GF/B filters. […] Filters were counted in Packard Emulsifier Safe scintillation fluid (3.5 ml) after 24 hours of extraction.
All compounds were also tested in functional assays.
The ability of the compounds to inhibit forskolin-stimulated (10 μM) cAMP production via the adenosine A3 receptor was also studied.
The amounts of cAMP were determined after a protocol with cAMP binding protein^28 with the following minor modifications. As a buffer was used 150 mM K2HPO4/10 mM EDTA/0.2% Bovine Serum Albumine (BSA) at pH 7.5. Samples (20 μl+30 μl 0.1 M HCl) were incubated for at least 2.5 hours at 0° C. before filtration over Whatman GF/B filters. […] Filters were counted in Packard Emulsifier Safe scintillation fluid (3.5 ml) after 24 hours of extraction.

For data set [2], the target named is T2, adenosine A1 receptor in rat brain cortex (Rattus norvegicus, UniProt P25099).
T2 construct: the adenosine A1 receptor in rat brain cortex; from tissue; host or cells: rat brain cortex
T2 sequence (P25099 1-326): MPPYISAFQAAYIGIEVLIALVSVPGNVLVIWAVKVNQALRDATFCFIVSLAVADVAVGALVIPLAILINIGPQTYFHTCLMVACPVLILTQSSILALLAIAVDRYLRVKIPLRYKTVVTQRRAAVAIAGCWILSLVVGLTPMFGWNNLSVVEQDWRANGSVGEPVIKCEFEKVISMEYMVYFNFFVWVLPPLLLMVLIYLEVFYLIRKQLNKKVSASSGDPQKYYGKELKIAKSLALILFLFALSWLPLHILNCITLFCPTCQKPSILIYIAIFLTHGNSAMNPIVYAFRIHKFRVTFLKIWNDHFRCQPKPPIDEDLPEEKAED
Nature of the data set: Radioligand binding, displacement of [3H]DPCPX from rat cortical membranes. To be noted: ligand 10^−5 M. (In general: In a radioligand displacement assay an active substance lowers the binding of a labelled ligand.)
Protocol: (§1) Incubations were carried out for 1 hr at 37° C. and were terminated by rapid filtration over Whatman GF/B filters, using a Brandell cell harvester (Brandell, Gaithersburg, Md.). Tubes were washed three times with 3 ml of buffer. Radioactivity was determined in a Beckman 5500B γ-counter. Nonspecific binding was determined in the presence of 10^−5 M R-PIA.
(§2) All compounds were tested in radioligand binding assays to determine their affinities for the adenosine A1 receptor in rat brain cortex, the A2A receptor in rat striatum and the human A3 receptor as expressed in HEK 293 cells (Table 2). […] AB-MECA, an A3 receptor agonist, was also used. Displacement experiments were performed in the absence of GTP.

For data set [3], the target named is T3, A2A receptor in rat striatum (Rattus norvegicus, UniProt P30543).
T3 construct: the A2A receptor in rat striatum; from tissue; host or cells: rat striatum
Nature of the data set: Radioligand binding, displacement of [3H]ZM241385 from rat striatal membranes.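 Note: displacement assays run in the absence of GTP.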 The settings on record: [3H]ZM241385, rat striatal membranes.
Protocol: as §1, §2

Data set [4] concerns the target T4, human adenosine A2A receptors expressed in CHO cells (Homo sapiens, UniProt P29274).
T4 construct: expressed in transfected cells; host or cells: CHO cells
Nature of the data set: cAMP assay A2A (stimulation of cAMP production). In kind it is cell-based. To be noted: for Emax: CHO, read-out: Emax (%) A2A; for EC50: cAMP production, human A2A in CHO cells. Background: Cyclic AMP is a second messenger, typically raised through Gs and lowered through Gi signalling.
Protocol: cAMP assay A2A CHO cells expressing human adenosine A2A receptors were grown overnight as a monolayer in 24 wells tissue culture plates (400 μL/well; 2×10^5 cells/well). cAMP generation was performed in Dulbecco's Modified Eagles Medium (DMEM)/N-2-hydroxyethylpiperazin-N′-2-ethanesulfonic acid (HEPES) buffer (0.60 g HEPES/50 mL DMEM pH 7.4). To each well, washed three times with DMEM/HEPES buffer (250 μλ), 100 μl DMEM/HEPES buffer, 100 μl adenosine deaminase (final concentration 5 IU/ml) and 100 μl of a mixture of rolipram and cilostamide (final concentration 50 μM each) were added. After incubation for 40 minutes at 37° C., 100 μl agonist was added. […] After 15 minutes at 37° C., the reaction was terminated by removing the medium and adding 200 μl 0.1 M HCl. Wells were stored at −20° C. until assay.
The amounts of cAMP were determined after a protocol with cAMP binding protein^36 with the following minor modifications. As a buffer was used 150 mM K2HPO4/10 mM EDTA/0.2% Bovine Serum Albumine (BSA) at pH 7.5. Samples (20 μl+30 μl 0.1 M HCl) were incubated for at least 2.5 hours at 0° C. before filtration over Whatman GF/B filters. […] Filters were counted in Packard Emulsifier Safe scintillation fluid (3.5 ml) after 24 hours of extraction.
Data Analysis Apparent Ki and EC50 values were computed from the displacement curves by non-linear regression of the competition curves with the software package Prism (Graph Pad, San Diego, Calif.)

Data set [5] deals with T5, human A3 receptor as expressed in HEK 293 cells (Homo sapiens, UniProt P0DMS8).
T5 construct: expressed in transfected cells; host or cells: HEK 293 cells (membrane suspension)
T5 sequence (P0DMS8 1-318): T1 sequence (P0DMS8 1-318)
Nature of the data set: Radioligand binding, displacement of [125I]AB MECA, HEK 293 cell membranes.
Protocol: as §1, §2

The target of data set [6] is T6, human adenosine A1 receptors expressed in CHO cells (Homo sapiens, UniProt P30542).
T6 construct: expressed in transfected cells; host or cells: CHO cells
T6 sequence (P30542 1-326): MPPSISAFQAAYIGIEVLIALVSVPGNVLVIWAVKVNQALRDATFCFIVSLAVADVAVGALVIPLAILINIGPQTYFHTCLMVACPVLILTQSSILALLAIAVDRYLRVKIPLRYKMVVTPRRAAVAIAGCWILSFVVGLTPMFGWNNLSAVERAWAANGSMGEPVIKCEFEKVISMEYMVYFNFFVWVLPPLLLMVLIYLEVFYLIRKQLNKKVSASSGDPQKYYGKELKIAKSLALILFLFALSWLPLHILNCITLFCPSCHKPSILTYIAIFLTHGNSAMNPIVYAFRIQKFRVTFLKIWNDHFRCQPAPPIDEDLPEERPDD
Nature of the data set: cAMP assay A1 (inhibition of forskolin-induced cAMP production). In kind it is cell-based. To be noted: compared to reference full agonist CPA (10 μM) in A1 CHO cells; tested at ±100 × Ki; ±SEM, n = 3; forskolin 10 μM. The procedure: cAMP assay A1 and A3 CHO cells expressing either the human adenosine A1 or A3 receptor were grown overnight as a monolayer in 24 wells tissue culture plates (400 μl/well; 2×10^5cells/well). cAMP generation was performed in Dulbecco's Modified Eagles Medium (DMEM)/N-2-hydroxyethylpiperazin-N′-2-ethansulfonic acid (HEPES) buffer (0.60 g HEPES/50 ml DMEM pH 7.4). […] After incubation for 40 minutes at 37° C., 100 μl forskolin (final concentration 10 μM) was added. After 15 minutes at 37° C., the reaction was terminated by removing the medium and adding 200 μL 0.1 M HCl. Wells were stored at −20° C. until assay
The amounts of cAMP were determined after a protocol with cAMP binding protein^28 with the following minor modifications. As a buffer was used 150 mM K2HPO4/10 mM EDTA/0.2% Bovine Serum Albumine (BSA) at pH 7.5. Samples (20 μl+30 μl 0.1 M HCl) were incubated for at least 2.5 hours at 0° C. before filtration over Whatman GF/B filters. Filters were additionally rinsed with 2×2 ml TrisHCl buffer (pH 7.4, 4° C.). Filters were counted in Packard Emulsifier Safe scintillation fluid (3.5 ml) after 24 hours of extraction. […]

T3 sequence (P30543 whole entry): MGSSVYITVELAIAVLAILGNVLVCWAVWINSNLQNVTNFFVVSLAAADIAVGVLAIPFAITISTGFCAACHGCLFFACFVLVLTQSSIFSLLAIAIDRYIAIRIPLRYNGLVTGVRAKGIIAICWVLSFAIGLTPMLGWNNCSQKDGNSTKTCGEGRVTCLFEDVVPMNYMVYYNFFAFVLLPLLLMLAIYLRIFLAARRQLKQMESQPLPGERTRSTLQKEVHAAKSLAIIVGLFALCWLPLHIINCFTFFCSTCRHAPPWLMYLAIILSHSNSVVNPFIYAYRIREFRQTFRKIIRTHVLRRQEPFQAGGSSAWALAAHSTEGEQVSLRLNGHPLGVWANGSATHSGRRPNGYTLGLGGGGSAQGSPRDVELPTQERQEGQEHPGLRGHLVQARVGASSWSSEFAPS
T4 sequence (P29274 whole entry): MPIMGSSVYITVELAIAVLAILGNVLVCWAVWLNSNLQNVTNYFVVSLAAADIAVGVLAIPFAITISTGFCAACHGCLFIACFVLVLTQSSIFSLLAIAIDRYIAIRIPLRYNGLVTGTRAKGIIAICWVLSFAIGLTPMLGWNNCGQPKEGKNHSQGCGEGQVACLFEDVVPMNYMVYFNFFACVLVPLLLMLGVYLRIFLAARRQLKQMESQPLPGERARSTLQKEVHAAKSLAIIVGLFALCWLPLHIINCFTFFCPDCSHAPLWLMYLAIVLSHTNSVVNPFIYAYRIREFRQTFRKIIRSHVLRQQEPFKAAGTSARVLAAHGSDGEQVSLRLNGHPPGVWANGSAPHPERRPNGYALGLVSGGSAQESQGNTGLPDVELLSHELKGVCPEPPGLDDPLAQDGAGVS

As for `CCCSC[C@H]1O[C@@H](n2cnc3c(N)nc(NN=CCC(C)C)nc32)[C@H](O)[C@@H]1O` [Compound 47, 5′-Deoxy-2-(N′-3-methyl-1-butylidenehydrazino)-5′-propylthioadenosine], the Emax at 100 µM in data set [1] stood at 16%. Moreover, the “% displacement at 10^−5 M A1” value in data set [2] was determined as 22.0%. In data set [3], this molecule registered an inhibitory constant (Ki) of 1500 ± 280 nM. Also, in data set [4], the Emax worked out at 126 ± 3% and the 50% effective concentration (EC50) is 12.9 ± 0.9 µM. Moreover, the “agonist behaviour, cAMP production via adenosine A2A receptor” value in data set [4] (compared to full agonist CGS 21680) is given as “full agonists”. Further, the Ki in data set [5] is 697 ± 31 nM.

As for `CC(C)CC=NNc1nc(N)c2ncn([C@@H]3O[C@H](CSC(C)C)[C@@H](O)[C@H]3O)c2n1` [Compound 48, 5′-Deoxy-2-(N′-3-methyl-1-butylidenehydrazino)-5′-isopropylthioadenosine], the maximum response (Emax) at 30 µM in data set [1] came out at 26%. Further, the “% displacement at 10^−5 M A1” value in data set [2] turned out to be 13.0%. The inhibition constant Ki in data set [3] is 1800 ± 230 nM. In addition, in data set [4], the maximal effect (Emax) came to 56 ± 1% and it took 10.4 ± 1 µM to reach a half-maximal effect (EC50). In data set [5], this molecule registered an inhibitory constant (Ki) of 409 ± 118 nM.

Molecule `COC[C@H]1O[C@@H](n2cnc3c(N)ncnc32)[C@H](O)[C@@H]1O` [Compound 66, 5′-O-methyladenosine] gave a melting point of 112 to 114 °C. In data set [3], this molecule came in with an inhibition constant (Ki) of 261 ± 65 nM. Also, the “% inhib. A1 of forskolin-induced cAMP” value in data set [6] came out at 75 ± 3%.

The molecule `COC[C@H]1O[C@@H](n2cnc3c(N)nc(Cl)nc32)[C@H](O)[C@@H]1O` [Compound 69, 2-Chloro-5′-O-methyladenosine] displayed a melting point of 200 to 202 °C. Further, the Ki in data set [3] is 284 ± 55 nM. Further, in data set [6], the “% inhib. A1 of forskolin-induced cAMP” value amounted to 78 ± 4%.

`CCOC[C@H]1O[C@@H](n2cnc3c(N)ncnc32)[C@H](O)[C@@H]1O` [Compound 72, 5′-O-Ethyladenosine] registered a melting point of 110 to 112 °C. The molecule further gave an inhibition constant (Ki) in data set [3] of 415 ± 69 nM. In addition, the “% inhib. A1 of forskolin-induced cAMP” value in data set [6] was 57 ± 11%.

`CCOC[C@H]1O[C@@H](n2cnc3c(N)nc(Cl)nc32)[C@H](O)[C@@H]1O` [Compound 75, 2-Chloro-5′-O-ethyladenosine] showed a melting point of 117 to 119 °C. For the same molecule, in data set [3], the affinity, expressed as Ki, was 659 ± 168 nM. In data set [6], the “% inhib. A1 of forskolin-induced cAMP” value stood at 67 ± 7%.

For `Nc1nc(Cl)nc2c1ncn2[C@@H]1O[C@H](COC2CC2)[C@@H](O)[C@H]1O` [Compound 81, 2-Chloro-5′-O-cyclopropyladenosine], the melting point is 122 to 124 °C. Moreover, the inhibition constant (Ki) in data set [3] stood at 885 ± 89 nM. For the same molecule, the “% inhib. A1 of forskolin-induced cAMP” value in data set [6] came to 49 ± 9%.

As usually defined, the Emax is the maximal effect, on the per cent scale that the assay sets. Broadly, the Ki is a dissociation constant, usually derived from enzyme kinetics or from competition with a known ligand. High values mean lower affinity, low ones higher affinity. What is called EC50 is the concentration that produces a half-maximal response. Low readings indicate greater potency, high ones weaker potency. By melting point is commonly meant the temperature of the solid-liquid transition.
